# Reference: patent US8367401B2, “Replication competent hepatitis C virus and methods of use” (Board of Regents, The University of Texas System, priority 1999, dated 2013)
# Assays:
# [1] = test system: Ntat2ANeo(RG) replicon (HCV-N) in En5-3 cells; assay: Interferon suppression of SEAP secretion, Ntat2ANeo(RG) replicon cell line; format: cell-based, hepatitis C virus
# Protocol: (§1) Alkaline phosphatase assay. […] The luminescent signal was read using a TD-20/20 Luminometer (Turner Designs, Inc.). In most time course experiments, the culture medium was replaced every 24 hrs. Thus, the SEAP activity measured in these fluids reflected the daily production of SEAP by the cells.
# (§2) Interferon treatment of cell cultures. Selected replicon-bearing cell lines were seeded into 12 well plates. The media was replaced 24 hrs later with fresh, G418 free media containing various concentrations of recombinant interferon-α2B ranging from 0 to 100 units/ml. The medium was subsequently completely removed every 24 hrs, the cells washed, and refed with fresh interferon-containing media. SEAP activity was measured in the media removed from the cells as described above.
# (§3) Interferon suppression of HCV RNA replication. […] Recently seeded cell cultures were fed with media containing various concentrations of recombinant interferon-α2B ranging from 0 to 100 units/ml. The medium was subsequently removed completely at 24 hr intervals, and the cells were washed thoroughly and refed with fresh interferon-containing media. […] The decline in intracellular RNA preceded the decreases in SEAP secretion by approximately 24 hrs, most likely reflecting the kinetic delay in tat signaling of SEAP secretion.
# En5-3 cells = assay: SEAP expression from En5-3 cells without replicon; format: cell-based; conditions: interferon treatment
# From the text: FIG. 22. Suppression of HCV replicon amplification by interferon-α2b. (A) SEAP activity secreted from cells supporting replication of Btat2ANeo(SI) over successive 24 hr intervals following addition of interferon to the medium. (B) SEAP secretion from Ntat2ANeo(RG) cells. Interferon concentrations were: (*) 100 units/ml; (X) 10 units/ml; (▴) 1 unit/ml; (▪) no interferon. SEAP expression from En5-3 cells without interferon treatment was also shown (♦). SEAP expression from En5-3 cells was not affected by interferon treatment.
# as §1
# [2] = test system: Btat2ANeo(SI) replicon (Con1 HCV) in En5-3 cells; assay: Interferon suppression of SEAP secretion, Btat2ANeo(SI) replicon cell line; format: cell-based, hepatitis C virus
# Protocol: as §1, §2, §3
# Et2AN cell line = assay: SEAP secretion by Et2AN control cell line (tat2ANeo under EMCV IRES, no replicon); format: cell-based
# From the text: as §1
# This permits serial measurements of the kinetics of RNA amplification in single cultures of cells (FIG. 21). One potential drawback of this system is that suppression of SEAP activity by candidate antiviral compounds could result from inhibition of the activity of either the 2A protease or tat, or even (as with other published dicistronic HCV replicons) the EMCV IRES. To address this issue, we established a stably transformed cell line that constitutively expresses the tat2ANeo polyprotein under the translational control of the EMCV IRES. This cell line (Et2AN) was established by transfection of pEt2AN DNA (FIG. 16) into En5-3 cells, followed by selection with G418.
# [3] = highest concentration of interferon tested, 100 units/ml
# [4] = interferon 0 to 100 units/ml, media replaced at 24 hr intervals, stable G418 resistant cell clone
substance,measurement,setting,value
interferon-α2b,cellular cytotoxicity,[1]; 100 units/ml,absence of demonstrable cellular cytotoxicity
same,SEAP expression over time,[1]; [3],SEAP expression declined over time
same,SEAP secretion,[1]; [4],dose-dependent inhibition of SEAP secretion
same,SEAP expression,En5-3 cells,not affected
same,cellular cytotoxicity,[2]; 100 units/ml,absence of demonstrable cellular cytotoxicity
same,SEAP expression over time,[2]; [3],SEAP expression declined over time
same,SEAP secretion,[2]; [4],dose-dependent inhibition of SEAP secretion
same,suppression of the secretion of SEAP,Et2AN cell line; comparable concentrations of interferon,no suppression
same,nonspecific toxicity,Et2AN cell line; concentrations of interferon tested,absence of nonspecific toxicity
